According to paper PMC7845594, “Novel Immune Modulators Enhance Caenorhabditis elegans Resistance to Multiple Pathogens” (mSphere, 2021):

Columns and labels:
[1] = tested on: C. elegans host defense pathway genes; experiment: nanoString expression of 115 immune- and stress-responsive genes; details: 100 μM LK molecules, 16 h
Experimental: The ratio of MIC to EC was determined for each of the 69 compounds.
Analysis of the expression of 115 immune- and stress-responsive genes using nanoString technology. Download Table S1, XLSX file, 0.02 MB.
For nanoString-based (nanoString Technologies, Seattle, WA) experiments, 2,000 wild-type, young adult worms were exposed to 100 μM LK molecules or DMSO control in S Basal medium in 6-well plates for 16 h. RNA purification and gene expression analysis were performed according to nanoString guidelines. Two biological replicates were tested for each condition.

[2] = tested on: C. elegans exposed to P. aeruginosa strain PA14; experiment: P. aeruginosa slow-killing assay (agar); assay type: in vivo, Caenorhabditis elegans; details: wild-type worms, 50 µM, Fig 8 (DMSO 58.9)
Source text: The finding that each of the compounds activated PMK-1/p38 MAPK targets was of interest, as this pathway is associated with enhanced immunity against multiple bacterial pathogens in agar-based C. elegans assays. Therefore, we tested whether these compounds could promote survival in an agar-based, high-colonization pathogenesis model known as slow killing. Loss of PMK-1 activity substantially compromises survival in the slow-killing assay ([16], [47]). Wild-type, young adult worms were exposed to P. aeruginosa strain PA14 on agar plates impregnated with each of the five compounds. […] To see whether this depended upon the PMK-1 pathway, LK32, LK38, and LK56 were retested in worms where RNAi was used to knock down pmk-1/MAPK or atf-7/ATF7 (a key transcription factor whose activity is modulated by PMK-1 [63, 64]) (Fig. 9; see Table S2 in the supplemental material for TD50 and overall statistical significance).
FIG 8 Four LK molecules extend C. elegans life span in the slow-killing assay. […] The data shown are from a representative replicate. Each of the three biological replicates was comprised of three plates per condition, with each plate containing ∼60 worms. Statistical significance was calculated using a log-rank test. Worms that left the surface of the plate were excluded from analysis (see Table S2 in the supplemental material for TD50 and exact P values).
FIG 9 Rescue in slow killing by a subset of LK compounds depends upon the PMK-1/p38 MAPK pathway. Wild-type L4 worms were reared on RNAi targeting pmk-1/p38 MAPK, atf-7/ATF-7, or empty vector and placed onto slow-killing plates containing DMSO or LK32 (A and B), LK38 (C and D), or LK56 (E and F) at 50 µM. Starting at 24 h, worms were scored every 12 h for survival until all worms perished. Each of the three biological replicates was comprised of three plates, each plate contained approximately 50 to 70 worms. Statistical significance was calculated using log-rank test (see Table S2 in the supplemental material for TD50 and exact P values). For vector RNAi, DMSO versus compound, P < 0.001 for LK38, LK56, and LK32.
Supplementary file : FIG S5 NSY-1 and SEK-1, upstream members of the PMK-1/p38 MAPK pathway, are required for LK38-mediated rescue. Young adult wild-type, nsy-1/MAP3K15(ag3), or sek-1/MAP2K6(km-4) mutants were exposed to P. aeruginosa in the slow-killing assay in the presence of DMSO or LK38. Data for each condition at each time point represent the average value for three plates from one representative replicate (of three replicates total). Each plate contained ∼60 worms. P values were calculated using a log-rank test (see Table S2 in the supplemental material for the TD50 and exact P values). For wild-type DMSO versus LK38 P < 0.001. No statistically significant difference was measured between LK38 and DMSO for either mutant. Download FIG S5, PDF file, 0.1 MB.
Slow-killing (SK) plates were made as previously reported ([92]). Compounds were added to molten SK agar before pouring plates. After solidifying, 40 µl of PA14 overnight culture was spread on plates before incubating plates at 37°C for 24 h, followed by 25°C for 24 h. 5-fluoro-2′-deoxyuridine (FUDR) (0.1 mg/ml) was dropped on plates 30 min prior to picking worms, to ensure nematode sterility. Fifty to seventy L4-stage, wild-type worms were picked onto plates and scored every 12 h after the first 24 h, until all worms were dead. Three biological replicates were performed.

[3] = tested on: reactive oxygen species (ROS); experiment: DHE staining (ROS level); assay type: in vivo, Caenorhabditis elegans; details: 50 or 100 µM, 10 h, no pathogen
Source text: Previous work from our lab has established that the ESRE network plays an important role in the resistance of C. elegans to pyoverdine, the main virulence determinant in liquid killing, and recent evidence has shown that ESRE activation depends on increased reactive oxygen species (ROS) ([23], [38], [39]). To evaluate ESRE activation, worms carrying an hsp-16.1p::GFP reporter (which contains two ESRE motifs and was previously used as an indicator of ESRE activation [[39][–][41]]), were exposed to 50 or 100 μM LK35, LK38, LK56, juglone (positive control), or DMSO. […] ROS level was assessed based on the fluorescence of dihydroethidium (DHE; a ROS-specific dye) using a COPAS FlowSort for flow vermimetry.
Young adult wild-type (A), hsp-4p::GFP (B), hsp-16.1p::GFP (C), or rpt-3::GFP (D) worms were incubated with LK molecules at 50 or 100 µM, DMSO control, or positive controls. For panel A, the worms were treated with compound for 10 h, and then the worms were stained with 4 µM DHE for 1 h before washing and fluorescence measurement. For panels B to D, the worms were treated with compound for 15 h prior to fluorescence measurement. Mean values from at least three biological replicates are shown. *, P < 0.05; **, P < 0.01; ***, P < 0.001 (compared to the solvent control). P values were calculated using Student’s t test. Error bars represent the standard error of the mean. […]

Cc1cc(C2CCCCC2)n(O)c(=O)c1 [Ciclopirox, reference compound]
B0024.4 expression, induction [1]: 1.09 fold
C02B4.2 nhr-17 expression, induction [1]: 5.80 fold
C06B3.7 expression, induction [1]: 3.19 fold
C07G3.2 irg-1 expression, induction [1]: 1.06 fold
C12C8.1 hsp-70 expression, induction [1]: 3.28 fold
C15F1.7 sod-1 expression, induction [1]: 2.15 fold
C29F7.2 expression, induction [1]: 10.38 fold
C31A11.5 oac-6 expression, induction [1]: 5.76 fold
C32D5.12 expression, induction [1]: 1.22 fold
C32H11.1 expression, induction [1]: 20.23 fold
C32H11.3 expression, induction [1]: 2.02 fold
C34G6.4 pgp-2 expression, induction [1]: 3.63 fold
C37C3.10 expression, induction [1]: 12.27 fold
C37H5.8 hsp-6 expression, induction [1]: 4.01 fold
C49G7.5 irg-2 expression, induction [1]: 3.65 fold
F08F8.5 numr-1 expression, induction [1]: 8.74 fold
F08H9.4 expression, induction [1]: 4.96 fold
F14F9.3 expression, induction [1]: 1.98 fold
F22B5.4 expression, induction [1]: 2.49 fold
F22H10.2 expression, induction [1]: 2.82 fold
F26A3.4 expression, induction [1]: 2.35 fold
F35E8.11 cdr-1 expression, induction [1]: 56.32 fold
F35G2.4 phy-2 expression, induction [1]: 1.70 fold
F37B12.2 gcs-1 expression, induction [1]: 1.30 fold
F43E2.8 hsp-4 expression, induction [1]: 10.74 fold
F44E5.5 expression, induction [1]: 2.67 fold
F49F1.6 expression, induction [1]: 2.55 fold
F49F1.7 expression, induction [1]: 15.81 fold
F49H6.13 expression, induction [1]: 2.90 fold
F54B8.4 expression, induction [1]: 6.33 fold
F55G11.2 expression, induction [1]: 1.86 fold
F59A7.1 clec-206 expression, induction [1]: 11.44 fold
F59B10.4 expression, induction [1]: 1.20 fold
H12D21.1 nspa-1 expression, induction [1]: 3.83 fold
H23N18.1 ugt-13 expression, induction [1]: 5.56 fold
H23N18.3 ugt-8 expression, induction [1]: 108.33 fold
K05B2.4 expression, induction [1]: 8.10 fold
K08F4.7 gst-4 expression, induction [1]: 2.79 fold
K09A9.1 nipi-3 expression, induction [1]: 2.12 fold
K10D11.2 expression, induction [1]: 2.25 fold
K10G4.3 expression, induction [1]: 2.60 fold
R03D7.6 gst-5 expression, induction [1]: 11.91 fold
R08H2.1 dhs-23 expression, induction [1]: 120.99 fold
R10E8.3 expression, induction [1]: 3.34 fold
T19D12.3 expression, induction [1]: 2.80 fold
T19H12.1 ugt-9 expression, induction [1]: 6.34 fold
T21E8.1 pgp-6 expression, induction [1]: 0.94 fold
T22B7.3 expression, induction [1]: 2.18 fold
T24C4.4 expression, induction [1]: 1.62 fold
T24E12.5 expression, induction [1]: 3.07 fold
T27E4.3 hsp-16.48 expression, induction [1]: 2.96 fold
T27E4.8 hsp-16.1 expression, induction [1]: 2.80 fold
T27F6.8 expression, induction [1]: 4.80 fold
T28C12.4 expression, induction [1]: 13.23 fold
W02D9.10 expression, induction [1]: 2.74 fold
Y22D7AL.5 hsp-60 expression, induction [1]: 2.19 fold
Y38E10A.15 nspe-7 expression, induction [1]: 1.84 fold
Y46H3A.2 hsp-16.41 expression, induction [1]: 2.63 fold
Y46H3A.3 hsp-16.2 expression, induction [1]: 2.71 fold
Y56A3A.33 expression, induction [1]: 3.70 fold
Y58A7A.5 expression, induction [1]: 1.48 fold
ZC376.7 atfs-1 expression, induction [1]: 3.27 fold
ZC443.6 ugt-16 expression, induction [1]: 52.72 fold
ZK697.6 gst-21 expression, induction [1]: 454.34 fold

Cc1ccc(Nc2nc(N)c3ccccc3n2)cc1Cl [RPW-24, reference compound]
TD50, slow killing [2]: 63.7 h

C=C(C)[C@H]1Cc2c(ccc3c2O[C@@H]2COc4cc(OC)c(OC)cc4[C@@H]2C3=O)O1 [rotenone]
ROS level (DHE staining) [3]: significant increase in staining
